# According to patent US8329904B2, “Azacyclic derivatives” (Hoffmann-La Roche Inc., priority 2009, dated 2012):
# Biological target: T1, human HSL (Homo sapiens, UniProt Q05469)
# T1 construct: overlapping PCR to generate a full length human HSL ORF with a 3′-His6 tag; His6 (C); made in house; host or cells: High 5 insect cells (baculovirus, pFast-BAC)
# T1 sequence (Q05469 1-1076): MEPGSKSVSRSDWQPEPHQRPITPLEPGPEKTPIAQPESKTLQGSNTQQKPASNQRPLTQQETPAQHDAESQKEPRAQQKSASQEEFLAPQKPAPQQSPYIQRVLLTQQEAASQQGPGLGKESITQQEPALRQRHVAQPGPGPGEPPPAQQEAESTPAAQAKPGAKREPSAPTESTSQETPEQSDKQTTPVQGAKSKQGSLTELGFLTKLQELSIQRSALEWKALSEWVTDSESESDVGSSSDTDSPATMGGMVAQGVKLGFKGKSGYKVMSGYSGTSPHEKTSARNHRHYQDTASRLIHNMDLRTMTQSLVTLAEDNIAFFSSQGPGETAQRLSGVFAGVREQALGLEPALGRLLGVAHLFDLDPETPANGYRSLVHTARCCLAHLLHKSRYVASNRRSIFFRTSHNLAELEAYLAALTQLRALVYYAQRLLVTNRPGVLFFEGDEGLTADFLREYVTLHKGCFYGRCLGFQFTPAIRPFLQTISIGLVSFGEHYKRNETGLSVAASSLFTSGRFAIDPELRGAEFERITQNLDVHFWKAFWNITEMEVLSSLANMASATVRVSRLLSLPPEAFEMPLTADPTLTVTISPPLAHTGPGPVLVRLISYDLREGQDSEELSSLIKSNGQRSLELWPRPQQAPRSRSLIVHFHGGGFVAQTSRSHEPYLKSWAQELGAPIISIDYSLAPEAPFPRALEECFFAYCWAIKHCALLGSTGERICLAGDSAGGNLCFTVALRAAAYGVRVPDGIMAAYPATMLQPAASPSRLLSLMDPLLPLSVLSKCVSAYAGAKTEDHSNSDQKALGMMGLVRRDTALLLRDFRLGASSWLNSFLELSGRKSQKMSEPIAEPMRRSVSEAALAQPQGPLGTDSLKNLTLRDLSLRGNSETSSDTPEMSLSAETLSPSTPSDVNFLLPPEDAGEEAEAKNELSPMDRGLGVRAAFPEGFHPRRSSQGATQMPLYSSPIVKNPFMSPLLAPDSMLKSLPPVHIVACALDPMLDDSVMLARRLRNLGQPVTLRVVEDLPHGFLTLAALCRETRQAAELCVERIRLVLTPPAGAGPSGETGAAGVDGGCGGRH
# Assay: Human Hormone-Sensitive Lipase (HSL) Enzyme Inhibition Assay
# Format: biochemical
# Conditions: colorimetric assay, 2,3-dimercapto-1-propanol tributyrate (DMPT) substrate, 37° C. for 20 minutes, absorbance at 405 nm; read-out: HSL hum IC50
# Outline: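 Colorimetric thioester hydrolysis: compounds in DMSO series mixed with DMPT (1.5 mM) in MOPS pH 7.2 with BSA, then baculovirus-expressed His6-tagged full-length human HSL added, 37° C, 20 min. DTNB plus detergents added, 15 min room temperature, absorbance at 405 nm.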
row,SMILES,IC50
1,"O=C(N1CCC2(CC1)CCN(c1ccc(OC(F)(F)F)cc1)C2=O)N1Cc2ccccc2C1 [Example 277, 8-(1,3-Dihydro-isoindole-2-carbonyl)-2-(4-trifluoromethoxy-phenyl)-2,8-diaza-spiro[4.5]decan-1-one]",260 nM
2,"O=C(N1CCC2(CC1)CCN(c1ccc(OC(F)(F)F)cc1)C2=O)N1CCCc2ccccc21 [Example 281, 8-(3,4-Dihydro-2H-quinoline-1-carbonyl)-2-(4-trifluoromethoxy-phenyl)-2,8-diaza-spiro[4.5]decan-1-one]",110 nM
3,"CN(CCc1ccccc1)C(=O)N1CCC2(CC1)CCN(c1ccc(OC(F)(F)F)cc1)C2=O [Example 282, 1-Oxo-2-(4-trifluoromethoxy-phenyl)-2,8-diaza-spiro[4.5]decane-8-carboxylic acid methyl-phenethyl-amide]",130 nM
4,"CN(CCc1ccccn1)C(=O)N1CCC2(CC1)CCN(c1ccc(OC(F)(F)F)cc1)C2=O [Example 283, 1-Oxo-2-(4-trifluoromethoxy-phenyl)-2,8-diaza-spiro[4.5]decane-8-carboxylic acid methyl-(2-pyridin-2-yl-ethyl)-amide]",140 nM
5,"CCN(CCc1ccccn1)C(=O)N1CCC2(CC1)CCN(c1ccc(OC(F)(F)F)cc1)C2=O [Example 284, 1-Oxo-2-(4-trifluoromethoxy-phenyl)-2,8-diaza-spiro[4.5]decane-8-carboxylic acid ethyl-(2-pyridin-2-yl-ethyl)-amide]",150 nM
6,"CC(C)NS(=O)(=O)N1CCC2(CCN(c3ccc(OC(F)(F)F)cc3)C2=O)CC1 [Example 285, 1-Oxo-2-(4-trifluoromethoxy-phenyl)-2,8-diaza-spiro[4.5]decane-8-sulfonic acid isopropylamide]",70 nM
7,"O=C1N(c2ccc(OC(F)(F)F)cc2)CCC12CCN(S(=O)(=O)Nc1ccccc1)CC2 [Example 286, 1-Oxo-2-(4-trifluoromethoxy-phenyl)-2,8-diaza-spiro[4.5]decane-8-sulfonic acid phenylamide]",60 nM
8,"O=C1N(c2ccc(OC(F)(F)F)cc2)CCC12CCN(S(=O)(=O)NCc1ccccc1)CC2 [Example 287, 1-Oxo-2-(4-trifluoromethoxy-phenyl)-2,8-diaza-spiro[4.5]decane-8-sulfonic acid benzylamide]",50 nM
9,"CC(CNS(=O)(=O)N1CCC2(CCN(c3ccc(OC(F)(F)F)cc3)C2=O)CC1)c1ccccc1 (stereo not shown) [Example 288, 1-Oxo-2-(4-trifluoromethoxy-phenyl)-2,8-diaza-spiro[4.5]decane-8-sulfonic acid (2-phenyl-propyl)-amide]",150 nM
10,"COCCNS(=O)(=O)N1CCC2(CCN(c3ccc(OC(F)(F)F)cc3)C2=O)CC1 [Example 289, 1-Oxo-2-(4-trifluoromethoxy-phenyl)-2,8-diaza-spiro[4.5]decane-8-sulfonic acid (2-methoxy-ethyl)-amide]",230 nM
11,"CCNS(=O)(=O)N1CCC2(CCN(c3ccc(OC(F)(F)F)cc3)C2=O)CC1 [Example 290, 1-Oxo-2-(4-trifluoromethoxy-phenyl)-2,8-diaza-spiro[4.5]decane-8-sulfonic acid ethylamide]",160 nM
12,"CCN(CC)S(=O)(=O)N1CCC2(CCN(c3ccc(OC(F)(F)F)cc3)C2=O)CC1 [Example 291, 1-Oxo-2-(4-trifluoromethoxy-phenyl)-2,8-diaza-spiro[4.5]decane-8-sulfonic acid diethylamide]",90 nM
13,"CN(CCO)S(=O)(=O)N1CCC2(CCN(c3ccc(OC(F)(F)F)cc3)C2=O)CC1 [Example 292, 1-Oxo-2-(4-trifluoromethoxy-phenyl)-2,8-diaza-spiro[4.5]decane-8-sulfonic acid (2-hydroxy-ethyl)-methyl-amide]",200 nM
14,"CC(C)CN(C)S(=O)(=O)N1CCC2(CCN(c3ccc(OC(F)(F)F)cc3)C2=O)CC1 [Example 293, 1-Oxo-2-(4-trifluoromethoxy-phenyl)-2,8-diaza-spiro[4.5]decane-8-sulfonic acid isobutyl-methyl-amide]",80 nM
15,"CCN(CCOC)S(=O)(=O)N1CCC2(CCN(c3ccc(OC(F)(F)F)cc3)C2=O)CC1 [Example 294, 1-Oxo-2-(4-trifluoromethoxy-phenyl)-2,8-diaza-spiro[4.5]decane-8-sulfonic acid ethyl-(2-methoxy-ethyl)-amide]",90 nM
16,"CN(c1ccccc1)S(=O)(=O)N1CCC2(CCN(c3ccc(OC(F)(F)F)cc3)C2=O)CC1 [Example 295, 1-Oxo-2-(4-trifluoromethoxy-phenyl)-2,8-diaza-spiro[4.5]decane-8-sulfonic acid methyl-phenyl-amide]",70 nM
17,"CN(Cc1ccccc1)S(=O)(=O)N1CCC2(CCN(c3ccc(OC(F)(F)F)cc3)C2=O)CC1 [Example 296, 1-Oxo-2-(4-trifluoromethoxy-phenyl)-2,8-diaza-spiro[4.5]decane-8-sulfonic acid benzyl-methyl-amide]",70 nM
18,"CN(CCc1ccccc1)S(=O)(=O)N1CCC2(CCN(c3ccc(OC(F)(F)F)cc3)C2=O)CC1 [Example 297, 1-Oxo-2-(4-trifluoromethoxy-phenyl)-2,8-diaza-spiro[4.5]decane-8-sulfonic acid methyl-phenethyl-amide]",110 nM
19,"CN(CCc1ccccn1)S(=O)(=O)N1CCC2(CCN(c3ccc(OC(F)(F)F)cc3)C2=O)CC1 [Example 298, 1-Oxo-2-(4-trifluoromethoxy-phenyl)-2,8-diaza-spiro[4.5]decane-8-sulfonic acid methyl-(2-pyridin-2-yl-ethyl)-amide]",160 nM

# The remaining lines, values ahead:
row,IC50,SMILES
1,220 nM,"O=C(N1CCCCCC1)N1CCC2(CC1)CCN(c1ccc(OC(F)(F)F)cc1)C2=O [Example 271, 8-(Azepane-1-carbonyl)-2-(4-trifluoromethoxy-phenyl)-2,8-diaza-spiro[4.5]decan-1-one]"
2,100 nM,"CC1CCCCN1C(=O)N1CCC2(CC1)CCN(c1ccc(OC(F)(F)F)cc1)C2=O (stereo not shown) [Example 272, 8-(2-Methyl-piperidine-1-carbonyl)-2-(4-trifluoromethoxy-phenyl)-2,8-diaza-spiro[4.5]decan-1-one]"
3,80 nM,"CCCCCN(C)C(=O)N1CCC2(CC1)CCN(c1ccc(OC(F)(F)F)cc1)C2=O [Example 273, 1-Oxo-2-(4-trifluoromethoxy-phenyl)-2,8-diaza-spiro[4.5]decane-8-carboxylic acid methyl-pentyl-amide]"
4,140 nM,"CCN(CCOC)C(=O)N1CCC2(CC1)CCN(c1ccc(OC(F)(F)F)cc1)C2=O [Example 274, 1-Oxo-2-(4-trifluoromethoxy-phenyl)-2,8-diaza-spiro[4.5]decane-8-carboxylic acid ethyl-(2-methoxy-ethyl)-amide]"
5,60 nM,"CN(C(=O)N1CCC2(CC1)CCN(c1ccc(OC(F)(F)F)cc1)C2=O)c1ccccc1 [Example 275, 1-Oxo-2-(4-trifluoromethoxy-phenyl)-2,8-diaza-spiro[4.5]decane-8-carboxylic acid methyl-phenyl-amide]"
6,70 nM,"CN(C(=O)N1CCC2(CC1)CCN(c1ccc(OC(F)(F)F)cc1)C2=O)C1CCCCC1 [Example 276, 1-Oxo-2-(4-trifluoromethoxy-phenyl)-2,8-diaza-spiro[4.5]decane-8-carboxylic acid cyclohexyl-methyl-amide]"
7,120 nM,"CN(Cc1ccccc1)C(=O)N1CCC2(CC1)CCN(c1ccc(OC(F)(F)F)cc1)C2=O [Example 278, 1-Oxo-2-(4-trifluoromethoxy-phenyl)-2,8-diaza-spiro[4.5]decane-8-carboxylic acid benzyl-methyl-amide]"
8,40 nM,"CCN(C(=O)N1CCC2(CC1)CCN(c1ccc(OC(F)(F)F)cc1)C2=O)c1ccccc1 [Example 279, 1-Oxo-2-(4-trifluoromethoxy-phenyl)-2,8-diaza-spiro[4.5]decane-8-carboxylic acid ethyl-phenyl-amide]"
9,90 nM,"CN(C(=O)N1CCC2(CC1)CCN(c1ccc(OC(F)(F)F)cc1)C2=O)c1cccc(F)c1 [Example 280, 1-Oxo-2-(4-trifluoromethoxy-phenyl)-2,8-diaza-spiro[4.5]decane-8-carboxylic acid (3-fluoro-phenyl)-methyl-amide]"
